Laboratory results taken from patent US11583528B2, “FFA1 (GPR40) as a therapeutic target for neural angiogenesis diseases or disorders” (Children's Medical Center Corporation, priority 2016, dated 2023).
Entries after “also recorded” stand apart in the source; their conditions may differ.

Tests used:
[1] = system: pancreatic β-cell; settings: by reducing β-cell overload; cited from earlier work
[2] = system: photoreceptors (661W); assay: Oxygen consumption and extracellular acidification rates of photoreceptor (661W) cells (Seahorse XFe96); format: cell-based
Experimental: (§1) All oxygen consumption rates were measured using a Seahorse XFe96 Flux Analyzer®. Whole retinas were isolated and 1 mm punch biopsies were loaded into the 96 well plate. Retinal punches were incubated in assay media (DMEM 5030 media supplemented with 12 mM glucose, 10 mM HEPES and 26 mM NaHCO3) to measure oxygen consumption rates (OCR) and extracellular acidification rates (ECAR). Photoreceptor (661W) cells, were incubated in their assay media (DMEM 5030, 12 mM glucose, 10 mM HEPES) one hour prior to measurements. Fatty acid oxidation rates were determined by treating tissues or cells with Etomoxir (40 μM; Sigma) 40 min prior to analysis and then providing BSA (control) or BSA/Palmitate conjugate (Seahorse). Glucose oxidation rates were measured after injection of 2-deoxyglucose (2-DG, 100 mM; Sigma) or media control during data acquisition. To determine the maximal fatty acid or glucose oxidative capacity, the nonmitochondrial respiration (rate after injection of 2 μM Rotenone and 2 μM Antimycin A) was subtracted from the oxygen consumption rate after injection of 0.5 μM carbonyl cyanide-ptrifluoromethoxyphenylhydrazone (FCCP).

[3] = system: retinas; assay: Oxygen consumption rate of ex vivo retinas (Seahorse XFe96); format: cell-based, mouse; settings: WT retinal explants with palmitate, etomoxir 40 μM
Experimental: as §1

[4] = system: Hif1α; assay: Hif1α protein in photoreceptor (661W) cells (Western blot); format: cell-based; settings: 661W photoreceptors, 8 hours post-treatment
Experimental: (§2) Retinal samples were obtained as described above. Retinal lysate (20 μg) from three different animals or endothelial cells lysate (10 μg) were loaded on an SDS-PAGE gel and electroblotted onto a PVDF membrane. After blocking, the membranes were incubated with antibodies against β-Actin (Sigma, A1978), Hif1α (Novus, NB100-134), and Glut1 (Novus, NB300-666 and Abcam, Ab652) overnight (1:1000 each). After washing, membranes were incubated with 1:10,000 horseradish peroxidase-conjugated anti-rabbit or anti-mouse secondary antibodies (Amersham, NA931V and NA934V) for one hour at room temperature. Densitometry was analyzed using ImageJ. Retinal Vegfa concentration was measured by ELISA (as per manual, MMV00, R&D Systems) and normalized by doing a Bradford to measure the total cell protein content of each samples.
(§3) Cone photoreceptor cells (al-Ubaidi, M. R., J Cell Biol 119, 1681-1687 (1992), and Tan, E., et al. Invest Ophthalmol Vis Sci 45, 764-768 (2004)) (661W; from Dr. Al-Ubaidi) were cultured as monolayers at 37° C., 5% CO2 in a humidified atmosphere in DMEM with FBS 10% supplemented with hydrocortisone (20 μg/500 mL, H-2270, Sigma), Progesterone (20 μg/500 mL, P-8783, Sigma), Putrescine (0.016 g/500 mL, P-7505, Sigma) and β-mercaptoethanol (20 μL/500 mL, M-6250, Sigma). Equal number of 661W cells (0.3×106) were plated in 6-well dishes and cultured to 80% confluence. […]

[5] = system: Glut1; assay: Glut1 expression in photoreceptor (661W) cells; format: cell-based; settings: 661W photoreceptors
Experimental: RNA samples from cell culture, whole retina or laser-captured neovessels and layers were treated with DNase I (Qiagen, Chatsworth, Calif.) to remove any contaminating genomic DNA. The DNase-treated RNA was then converted into cDNA using reverse transcriptase (Invitrogen). PCR primers for target genes and the control gene, cyclophilin A, were designed using Primer Bank and NCBI Primer Blast software. Quantitative analysis of gene expression was generated using an ABI Prism 7700 Sequence Detection System with the SYBR Green Master mix kit and gene expression was calculated relative to cyclophilin A using the ΔcT method.
as §3, with “[…] Photoreceptors” for “Equal number of 661W cells (0.3×106)”, “then collected 8 hours post-treatment for Hif1α protein expression (see Western blot); while their medium was collected at 12 hours for Vegfa quantification by ELISA (as per manual, MMV00, R&D Systems).” for “plated in 6-well dishes and cultured to 80% confluence.”

[6] = system: Vldlr−/− mice; assay: Quantification of RAP-like retinal vascular lesions in Vldlr−/− mice; format: in vivo, mouse; settings: Vldlr−/− pups treated from P8 to P15, lesions quantified at P16, versus vehicle control
Text: (§4) All studies adhered to the NIH guide for the Care and Use of laboratory animals, the Association for Research in Vision and Ophthalmology (ARVO) Statement for the Use of Animals in Ophthalmic and Vision Research and were approved by the Institutional Animal Care and Use Committee at Boston Children's Hospital. Vldlr knockout mice (Vldlr^−/−; Jackson Lab Stock: 002529) were crossed with wild type C57Bl/6 mice to obtain heterozygous breeders for littermate controlled experiments. Vldlr^−/− mice were also crossed with Ffar1 knockout mice (Ffar1^−/−)^1 to ultimately obtain Vldlr^−/−/Ffar1^−/+ heterozygous breeders and double knockout mice (Vldlr^−/−/Ffar1^−/−). Pups weighing less than 5 grams or more than 7 grams at postnatal day (P)16 were excluded (Stahl, A., et al. Am J Pathol 177, 2715-2723 (2010)). Littermate Vldlr^−/− pups were treated from P8 to P15 with WY164363 (50 mg/kg once daily, intraperitoneal; Sigma), GW9508 (14 μM, once daily intraperitoneal; Cayman), TAK-875 (15 mg/kg twice daily, gavage; Selleckchem), medium chain triglyceride oil (MCT, 20 μL once daily gavage; Nestle) or corresponding vehicle and sacrificed at P16 to quantify retinal vascular lesions. Mice pups of both genders were used.
For quantification of outer retina vascular lesions, reminiscent of retinal angiomatous proliferation (RAP) or macular telangiectasia (MacTel), mice were euthanized with a mixture of xylazine and ketamine and eyes were enucleated and fixed in 4% paraformaldehyde for 1 h at room temperature. […] For quantification of retinal lesions 20 images of each whole-mounted retina were obtained at 10× magnification on a Zeiss AxioObserver.Z1 microscope and merged to form one image using AxioVision 4.6.3.0 software. Vascular lesion counts were analyzed using the SWIFT_MACTEL method, an adaptation of the method used to measure neovascularization (SWIFT_NV) (Stahl, A., et al. Angiogenesis 12, 297-301 (2009) in the oxygen induced retinopathy model. […]

[7] = system: photoreceptors (661W); assay: Glucose uptake of photoreceptor (661W) cells; format: cell-based; settings: 661W photoreceptors
Experimental: Whole retinas and photoreceptors (661W) were incubated in assay media (DMEM 5030, 12 mM glucose, 10 mM HEPES) for 6 and 48 hours respectively. Media was collected, spun briefly (13 g) to remove cellular debris, and glucose and lactate levels measured using a Yellow Springs Instrument (YSI) 2950 were compared to control media that was not exposed to tissue or cells. To determine the conversion of glucose to lactate (the glycolytic rate), lactate production was divided by glucose uptake.

[8] = system: Hif1α; assay: Retinal Hif1α stabilization after in vivo treatment (Western blot); design: species or system mouse
Experimental: as §2

[9] = system: Glut1; assay: Retinal Glut1 expression after in vivo treatment (qRT-PCR / Western blot); design: species or system mouse; settings: versus control
Text: as §4, with “Pups weighing less than 5 grams or more than 7 grams at postnatal day (P)16 were excluded (Stahl, A., et al. Am J Pathol 177, 2715-2723 (2010)).” left out, “Mice pups of both genders were used.” left out
Retinal samples were obtained as described above. […] Densitometry was analyzed using ImageJ. Retinal Vegfa concentration was measured by ELISA (as per manual, MMV00, R&D Systems) and normalized by doing a Bradford to measure the total cell protein content of each samples.

[10] = system: WT and Vldlr−/− mice; assay: Retinal glucose uptake (3H-2-deoxyglucose tracer) in treated pups; format: in vivo, mouse; settings: WT and Vldlr−/− retinas; GW9508 14 μM daily i.p. for 5 days (P7-P12)
Experimental: Positron emission tomography (PET) imaging studies were performed on WT, Vldlr^−/−/Ffar1^−/and Ffar1^−/− mice (P16; Focus 120 high-resolution, Siemens), followed by micro CAT imaging (MicroCAT II scanner, Siemens). Fluorine-18 fluorodeoxyglucose FDG) was administered by intraperitoneal injection (i.p.) to obtain nontoxic radioactivity levels (3.7 and 37 MBq; or 0.1 to 1.0 mCi). Actual administered activity was determined using a dose calibrator to measure activity in the syringe before and after the injection. Images were acquired 60 minutes after injection to ensure radiotracer uptake. Mice were fasted for 6 hours prior to imaging, kept in darkness and anesthetized by inhalation of isoflurane (2-4%) through a nose cone for the duration of the procedure. Animals were imaged in a head first, prone position, and placed on a heating pad to maintain appropriate body temperature. Upon completion of imaging, mice were euthanized and retinas were dissected for precise ^18F-FDG retinal activity, quantification by gamma counter, and corrected for decay. […] Retinas were collected and homogenized in a scintillation cocktail (Ecolite+, MP biomedicals) and betacounts measured using the LS6500 Multipurpose Scintillation Counter (Beckman).

Question: Which “pancreatic β-cell dysfunction” value [1] does the source give for `CCCCc1ccc(NS(=O)(=O)c2ccc(F)cc2)cc1` [DC260126, N-(4-Butylphenyl)-4-fluoro-benzenesulfonamide] here?
Answer: protect

Question: Which results are given for `CCOC(=O)[C@@]1(CCCCCCOc2ccc(Cl)cc2)CO1` [Etomoxir]?
Answer: effect on the increase in respiration (OCR) ([2]; 661W photoreceptors with palmitate, etomoxir 40 μM): abrogated; mitochondrial respiration (OCR) with FA oxidation inhibitor [3]: abrogated

Question: Which Hif1α stabilization [4] does the source give for `O=C(O)CCc1ccc(NCc2cccc(Oc3ccccc3)c2)cc1` [GW9508] here?
Answer: stabilized; also recorded: stabilization

Question: And the Glut1 expression [5]?
Answer: suppression

Question: And the “number of RAP-like pathologic vascular lesions” value [6]?
Answer: more than doubled

Question: What about the glucose uptake [7] of the same compound?
Answer: decreased

Question: What about the “Hif1α stabilization in retina” value ([8]; Vldlr−/− retinas) of the same compound?
Answer: stabilized

Question: What about the “Hif1α stabilization in retina” value ([8]; WT retinas) of the same compound?
Answer: stabilized

Question: What about the “Glut1 expression in retina” value ([9]; WT and Vldlr−/− retinas) of the same compound?
Answer: reduces; also recorded: suppressed

Question: What about the “retinal glucose uptake (3H-2-DG tracer)” value [10] of the same compound?
Answer: suppressed; also recorded: reduction

Question: Which results are given for `CCCCCCCN(CCc1ccc(SC(C)(C)C(=O)O)cc1)C(=O)Nc1ccc(F)cc1F` [GW9578]?
Answer: extracellular acidification rate (ECAR), reflecting lactate production from glycolysis ([2]; 661W photoreceptors, GW9578 100 nM, 48 hours): without significantly affecting; also recorded: not detectably affected; mitochondrial respiration by FA β-oxidation (OCR) ([2]; 661W photoreceptors, palmitate, GW9578 100 nM, 48 hours): induced; also recorded: further increased

Question: Which “effect on FFA1-mediated Glut1 suppression by GW9508” value ([5]; PD98059, 20 μM, SP600125, Ffar1 siRNA) does the source give for `COc1cccc(-c2cc(=O)c3ccccc3o2)c1N` [PD98059] here?
Answer: prevented

Question: What does the source list for `Cc1cc(OCCCS(C)(=O)=O)cc(C)c1-c1cccc(COc2ccc3c(c2)OC[C@H]3CC(=O)O)c1` [TAK-875]?
Answer: number of RAP-like pathologic vascular lesions [6]: significantly increased and more; Glut1 expression in retina ([9]; Vldlr−/− retinas only): increased Glut1 suppression

Question: Which “number of RAP-like pathologic vascular lesions” value [6] does the source give for `Cc1cccc(Nc2cc(Cl)nc(SCC(=O)O)n2)c1C` [WY16463] here?
Answer: reduced
